# Laboratory results reported in patent publication US10513529B2, “1,2,4-triazolo-[3,4-b]-1,3,4-thiadiazole derivatives” (GALENICA S.A., priority 2016, dated 2019).
# pIC50: −log10 of the molar value.
# Legend:
# Assay type in all cases: cell-based
# [1] = system: A-549 human lung carcinoma cell line; experiment: MTT cytostatic-cytotoxic activity, A-549; details: for TGI: A-549, 48 h treatment; for GI50 / pIC50: Homo sapiens, A549, A-549, 48 h treatment; for pIC50: kills 50% of the cells
# [2] = system: UWB1.289 human ovarian cancer cell line (mutant BRCA1); experiment: MTT cytostatic-cytotoxic activity, UWB1.289; details: for GI50 / pIC50: Homo sapiens; for GI50: UWB1289, 48 h; for GI50 / TGI: UWB1.289, 48 h treatment; for pIC50: UWB1289, UWB1.289, 48 h treatment, kills 50% of the cells
# Experimental: Also, UWB1.289 cells have mutated the p53 tumor suppressor gene and positive Wilms' tumor protein (WT) expression, have no functional BRCA1 gene and are positive for the expression of cytokeratin 7 (CK-7), calretinin and Wilms' tumor protein (WT). Finally they are sensitive to ionizing radiation.
# (§1) All cancer cell lines are stored in a liquid nitrogen tank in 2.5 ml cryovials (Corning-Costar, Cambridge, Mass.). DMSO (dimethylsulfoxide) act as a cryoprotectant and is added to prevent the formation of ice crystals which may lyse the cells. The Cells were grown as monolayer cultures in T-75 flasks (Corning-Costar, Cambridge, Mass.) and maintained at 37° C. in 5% CO2 incubator & 100% relative humidity. The cultures medium used are McCoy's 5a Medium, supplemented with 10% fetal bovine serum (FBS, Gibco) and 1% antibiotics (100 IU/ml penicillin/100 µg/ml streptomycin), sterilized by filtration (Corning-Costar filter, diameter 0.2 μm, RPMI-1640 and 50% RPMI-1640 (Catalog No 30-2001) plus 50% Mammary Epithelial Growth Medium (MEGM), supplemented with 10% fetal bovine serum (FBS, Gibco) and 1% antibiotics (100 IU/ml penicillin/100 μg/ml streptomycin). The passage is performed every 3-4 to days as follows: Cells are washed with sterile PBS (Phosphate buffered saline): 8 g/l NaCl, 0,2 g/l KCl, 1,15 g/l Na2HPO4καl 0,2 g/l KH2PO4. pH:7,4), add 2-3 ml 0.05% trypsin (Gibco 1:250) and 0.02% EDTA to cover the monolayer and incubate the flask at 3TC for 5-10 minutes. Trypsin-EDTA, is used mainly to detach the cells from the flask and prepare a single cell suspension. Finally, the number of cells can be determined by direct counting using a Neubauer chamber and cell viability is determined by staining the cells with trypan blue.
# (§2) In the experimental study the in vitro effect of the compound type (I) was evaluated against ovarian cancer cell lines UWB1.289, UWB1.289+BRCA1 Kai SKOV-3.The cells were plated in 96-well plate (MTP) at a density of 1×10^4cells/m1 per well and maintained for 72 h at 3TC in a 5% CO2 incubator and grown as monolayers. The selection of the initial number of cells was made according to the rate of proliferation of the cell line, in order the cells throughout the experiment are in an exponential (log) growth phase. After 24 hours, cells were treated with 1-100 μmol/l of the tested compounds for 48 h. Experiments were carried out using triplicate wells. The viability of cultured cells was estimated by an (3-(4,5-imethylthiazol-2-yl)-2,5-diphenyltetrazolium bromide (MTT) metabolic assay as described previously (Finlay G J, Wilson W R and Baguley B C: Comparison of in vitro activity of cytotoxic drugs towards human carcinoma and leukaemia cell lines. Eur J Cancer Clin Oncol 22: 655-662, 1986; Alley M C, Scudiero D A, Monks A, Hursey M L, Czerwinski M J, Fine D L, et al. Feasibility of drug screening with panels of human tumor cell lines using a microculture tetrazolium assay. Cancer Res 1988; 48:589-601). MTT (Sigma, St Louis, Mo., USA) was dissolved in PBS in a concentration of 5 mg/ml, filter sterilized, and stored at 4° C. MTT (50 μl of stock solution) was added to each culture and incubated for 3 h at 3TC to allow metabolization. Formazan crystals were solubilized by DMSO (100 μl). Absorbance of the converted dye was measured at a wavelength of 540nm on ELISA reader (BioTek, Winooski, Vt., USA).
# (§3) GI50: The mean concentration that causes 50% inhibition of cell growth (Growth Inhibition 50%). The calculation of the value is based on the formula: (Tt72x)−(Ct24)/(Ct72)-(Ct24)×100=50
# (§4) TGI: The mean concentration that causes 100% inhibition of cell growth (Total Growth Inhibition). The value is calculated according to the formula: (Tt72x)−(Ct24)/(Ct72)−(Ct24)×100=0
# (§5) IC50: The mean concentration that kills 50% of the cells (Inhibition Concentration 50%). The value is calculated according to the formula: (Tt72x)−(Ct24)/(Ct24)×100=[…]
# [3] = system: UWB1.289 + BRCA1 human ovarian cancer cell line; experiment: MTT cytostatic-cytotoxic activity, UWB1.289+BRCA1; details: for GI50 / pIC50: Homo sapiens, UWB1289, UWB1.289+BRCA1, 48 h treatment; for pIC50: kills 50% of the cells; for TGI: UWB1.289+BRCA1, 48 h treatment
# Experimental: Human ovarian adenocarcinoma cells, derived from UBWB1,289, in which the presence of the BRCA1 gene has been restored. […] They are not susceptible to ionizing radiation and radioimmune chemical agents (e.g., alkylating agents). Also, UWB1.289 cells have mutated the p53 tumor suppressor gene, and are positive for the expression of cytokeratin 7 (CK-7), calretinin and Wilms' tumor protein (WT).
# as §1, §2, §3, §4, §5
# [4] = system: all 9 human cancer cell lines; experiment: MTT cytostatic-cytotoxic activity, all 9 human cancer cell lines
Structure (SMILES),TGI [1],GI50 [1],pIC50 [1],GI50 [2],pIC50 [2],TGI [2],GI50 [3],pIC50 [3],TGI [3],"pIC50 ([4]; Homo sapiens, read-out: (cytotoxic))","GI50 ([4]; in all 9 human cancer cell lines, read-out: IG50 (cytostatic))"
"COc1cc(Cc2nnc3sc(/C=C/c4ccc(F)cc4)nn23)c(S(=O)(=O)N(C)C)cc1OC [TS25, 3-[2-(N,N-dimethylsulfamoyl)-4,5-dimethoxybenzyl]-6-(E)-4-fluorostyryl-1,2,4-triazolo[3,4-b]-1,3,4-thiazole]",56 µM,11 µM,4.06,2 µM,4.22,4 µM,5 µM,4.44,12 µM,–,–
"COc1cc(Cc2nnc3sc(/C=C/c4ccc(Cl)cc4)nn23)c(S(=O)(=O)N(C)C)cc1OC [TS26, 3-[2-(N,N-dimethylsulfamoyl)-4,5-dimethoxybenzyl]-6-(E)-4-chlorostyryl-1,2,4-triazolo[3,4-b]-1,3,4-thiazole]",90 µM,20 µM,< 4.00,8 µM,4.14,21 µM,11 µM,4.27,37 µM,–,–
"COc1ccc(Cc2nn3c(Cc4cc(OC)c(OC)cc4S(=O)(=O)N(C)C)nnc3s2)cc1 [TS50, 3-[2-(N,N-dimethylsulfamoyl)-4,5-dimethoxybenzyl]-6-(4-methoxybenzyl)-1,2,4-triazolo[3,4-b]-1,3,4-thiazole]",>100 µM,35 µM,< 4.00,30 µM,< 4.00,>100 µM,16 µM,< 4.00,>100 µM,–,–
"COc1cc(Cc2nnc3sc(-c4ccccc4N)nn23)c(S(=O)(=O)N(C)C)cc1OC [TS57, 3-[2-(N,N-dimethylosulfamoyl)-4,5-dimethoxybenzyl]-6-(2-aminophenyl)-1,2,4-triazolo[3,4-b]-1,3,4-thiazole]",>100 µM,> 100 µM,< 4.00,> 100 µM,< 4.00,>100 µM,85 µM,< 4.00,>100 µM,–,–
"COc1cc(Cc2nnc3sc(Cc4ccccc4)nn23)c(S(=O)(=O)N(C)C)cc1OC [TS62, 3-[2-(N,N-dimethylsulfamoyl)-4,5-dimethoxybenzyl]-6-benzyl-1,2,4-triazolo[3,4-b]-1,3,4-thiazole]",71 µM,15 µM,< 4.00,13 µM,< 4.00,>100 µM,8 µM,< 4.00,64 µM,–,–
"COc1cc(Cc2nnc3sc(-c4ccc(Cl)cc4)nn23)c(S(=O)(=O)N(C)C)cc1OC [TS63, 3-[2-(N,N-dimethylsulfamoyl)-4,5-dimethoxybenzyl]-6-(4-chlorophenyl)-1,2,4-triazolo[3,4-b]-1,3,4-thiazole]",36 µM,14 µM,4.04,30 µM,< 4.00,50 µM,8 µM,< 4.00,64 µM,–,–
"COc1cc(Cc2nnc3sc(-c4ccc(N)cc4)nn23)c(S(=O)(=O)N(C)C)cc1OC [TS71, 3-[2-(N,N-dimethylsulfamoyl)-4,5-dimethoxybenzyl]-6-(4-aminophenyl)-1,2,4-triazolo[3,4-b]-1,3,4-thiazole]",>100 µM,> 100 µM,< 4.00,> 100 µM,< 4.00,>100 µM,90 µM,< 4.00,>100 µM,–,–
"COc1cc(Cc2nnc3sc(-c4ccccc4)nn23)c(S(=O)(=O)N(C)C)cc1OC [TS167, 3-[2-(N,N-dimethylsulfamoyI)-4,5-dimethoxy-benzyl]-6-phenyl-1,2,4-triazolo[3,4-b]-1,3,4-thiazole]",>100 µM,74 µM,< 4.00,56 µM,< 4.00,>100 µM,76 µM,< 4.00,>100 µM,< 4.00,< 100 µM
